# Laboratory results as given in US7018643B2, “Pesticide delivery system” (Engelhard Corporation, priority 2000, dated 2006).
# Tested on: Erwinia amylovora (Ea) strain AFRS-581
# Assay: Fireblight blossom infection on potted 'Rome' apple trees inoculated with Erwinia amylovora, greenhouse
# Format: in vivo
# Conditions: 'Rome' apple blossoms sprayed with 10^8 CFU Ea, treated about 1 hour later, scored after 7 days; PM 3% weight by volume; copper hydroxide 0.5 g/l; Blight Ban 1 g/l; streptomycin 0.5 g/l
# Description: The enhanced effect of reducing fireblight in apple trees with the pesticide delivery system of the present invention containing bactericides is examined and compared to conventional pesticides.
# Experiments are conducted on potted trees of ‘Rome’ apple in a naturally illuminated greenhouse. When about 80% of the blooms are open, open blossoms are sprayed to drip with 10^8 CFU of Erwinia amylovora (Ea) strain AFRS-581. After drying for about 1 hour, each the following treatments are applied to six of the infected trees. Slurries containing particulate materials (PM) (3% weight by volume), water and copper hydroxide at 0.5 g/l (Copper Count N from Mineral Research Development Co., Charlotte, N.C., a bactericide), Blight Ban at 1 g/l (from Plant Health Technologies, Boise, Id., a microbial bactericide), or streptomycin at 0.5 g/l (from Novartis Crop Protection Inc., Greensboro, N.C., an antibiotic); and slurries containing PM (3% weight by volume) and water; and mixtures of water and copper hydroxide at 0.5 g/l, Blight Ban at 1 g/l, or streptomycin at 0.5 g/l are applied to the apple trees. […]
# After 7 days, blossom necrosis symptoms are present and recorded. Disease data are expressed as percentage of blossom infect rate.
row,Structure (SMILES),% Blossom Infection [%]
1,[Cu+2].[OH-].[OH-] [copper hydroxide],87.1
2,[H]/N=C(/N)N[C@H]1[C@H](O)[C@@H](O)[C@H](O[C@@H]2O[C@@H](C)[C@](O)(C=O)[C@H]2O[C@@H]2O[C@@H](CO)[C@H](O)[C@@H](O)[C@@H]2NC)[C@@H](N/C(N)=N\[H])[C@@H]1O [streptomycin],83.3
